Assay results taken from article PMC7768359, “Synthesis of Platinum(II) Complexes with Some 1-Methylnitropyrazoles and In Vitro Research on Their Cytotoxic Activity” (Pharmaceuticals, 2020).

What was measured:
[1] = logP by shake-flask method (n-octanol / 0.9% NaCl, Pt by ICP-OES); assay type: physicochemical; settings: octanol/water, n = 4
Experimental: An important factor for the pharmacokinetics and the cellular accumulation of the investigated complexes, their lipophilicity was determined by measuring octanol/water partition coefficients (logP) with the shake-flask method. The logP determination was carried out based on a previously described procedure, modified by us to obtain more accurate and repeatable results.
Weighted amounts of the tested platinum complex were suspended by 10 min sonification in 0.9% NaCl water solution, which was previously saturated with n-octanol, and mixed by shaking for 1 h. A simultaneously similar procedure was performed using 5 mL of n-octanol pre-saturated with 0.9% NaCl. Afterward, both suspensions were mixed together, shaken for an additional 1 h, and centrifuged for 5 min. After phase separation and evaporation in vacuo of 1 mL of sample to dryness, the final concentration of Pt was determined by ICP-OES (λ = 265.945 nm) and the partition coefficients were calculated. For the analysis, all samples were dissolved 1:1000 in 2.5% HCl. Each measurement was repeated four times and the final logP was calculated as the arithmetic mean of the four values.

MCF-7 cells = experiment: Total cellular platinum uptake (ICP OES); assay type: cell-based, human; settings: MCF-7, 4 h exposure, 10 µM
Experimental: It is necessary to strongly emphasize that the underlined values have a statistically significant lack of variance homogeneity (Fisher–Snedecor’s F-test, Fα/2) with respect to reference drug variance, so Aspin–Welch’s t-test was applied in these cases. […] For ionic compound 8, platinum uptake value was not determined due to Pt concentrations in the cell lysates being below the instrument detection limit (IDL = 10 μg/kg) specified by the manufacturer for the device used.
Cultured MCF-7 cells were seeded at a density of 4 × 10^5 cells/well of culture medium on a 6-well plate (Corning, NY, USA) to a final volume of 2.5 mL. […] The wells without MCF-7 cells were filled with 1 mL of culture medium-containing compound tested to act as a reference for nonspecific platinum complex adsorption on the surface of the well. After incubation, all wells were washed twice with 2 mL of cold PBS, filled with 400 μL of hot (ca 90 °C) 65% nitric acid, and maintained to stand for 2 h. All wells were finally filled with 1600 μL of water and this solution was collected and analyzed using iCAP 7400 Duo ICP OES instrument (Thermo Fisher Scientific) using the plasma axial view (10 s) at λ = 265.945 nm. The amount of Pt per cell was calculated by subtracting the amount of Pt found in the blank well from the amount of Pt found in the cell-containing wells and normalized to the average number of cells per well. The mean and SD values were calculated on the basis of 4 measurements.

[2] = tested on: A549 (lung adenocarcinoma); experiment: In vitro cytotoxicity, sulforhodamine B assay; assay type: cell-based, human; settings: 72 h
Experimental: (§1) Determination of the cytotoxic activity of compounds tested was performed separately in the normoxia or hypoxia conditions to reveal their potentially bioreductive properties. The experiment was carried out on three human cancer cell lines: MCF-7 breast, ES-2 ovarian and A549 lung adenocarcinoma as well as normal murine embryonic fibroblast BALB/3T3 cell line. In order to facilitate the preparation of solutions of the tested compounds, their initial solutions for dilution were made by dissolving the compounds in acetone. For this purpose, it was not possible to use more polar aprotic solvents (DMSO, DMF) due to the rapid isomerization of some of the tested complexes under their influence.
(§2) All the cell lines were cultured at 37 °C in a humid atmosphere containing 5% CO2. Additionally, in the case of cytotoxicity assay with hypoxic conditions, the cells (MCF-7, ES-2, A549) were maintained at 37 °C in a humid atmosphere containing 5% CO2 and 1% O2 during the entire experiment.
(§3) Twenty-four hours before adding the tested compounds, all cell lines were seeded in 96-well plates ([…] AG & Co, Nümbrecht Germany) in an appropriate media with 10^4 cells per well. All cell lines were exposed to each compound tested at four different concentrations for 72 h. […] Additionally, all cell lines were exposed to acetone (Avantor Performance Materials, Gliwice, Poland) (the solvent used for tested compounds) at concentrations corresponding to those present in tested compounds’ dilutions.
(§4) After 72 h of cell incubation with the compounds tested, the sulforhodamine B (SRB) assay was performed as described by Shekan et al. with minor modifications. The cells were fixed in situ by adding 50 µL per well of cold 50% trichloroacetic acid (Avantor Performance Materials, Gliwice, Poland) and were incubated at 4 °C for one hour. Following that, wells were washed five times with water and air dried. Next, 50 µL of 0.4% solution of sulforhodamine B (Sigma-Aldrich, Steinheim, Germany) in 1% acetic acid (Avantor Performance Materials, Gliwice, Poland) were added to each well and plates were incubated at room temperature for 0.5 h. After incubation time, the unbound dye was removed by washing plates five times with 1% acetic acid, whereas stains bound to cells was solubilized with 10 mM Tris base (Sigma-Aldrich, Steinheim, Germany). The absorbance of each solution was read by the Multiskan RC photometer (Labsystems Diagnostics Oy, Vantaa, Finland) at a 540 nm wavelength. Results are presented as mean IC50 (concentration of the compound tested that inhibits cell proliferation by 50%) ± standard deviation. IC50 values were calculated for each experiment on the basis of four different concentrations using Cheburator software, as described by Nevozhay. The tested compounds at each concentration were tested in triplicates in a single experiment and each experiment was repeated at least three times independently.

[3] = tested on: ES-2 (ovarian adenocarcinoma); experiment: In vitro cytotoxicity, sulforhodamine B assay; assay type: cell-based, human; settings: 72 h
Experimental: as §1, §2, §3, §4

[4] = tested on: MCF-7 (breast adenocarcinoma); experiment: In vitro cytotoxicity, sulforhodamine B assay; assay type: cell-based, human; settings: 72 h
Experimental: as §1, §2, §3, §4

[5] = tested on: BALB/3T3 (murine embryonic fibroblast); experiment: In vitro cytotoxicity, sulforhodamine B assay, normal cells; assay type: cell-based; settings: BALB/3T3 normal cells, normoxia, 72 h
Experimental: as §1, with “acetone.” for “acetone. For this purpose, it was not possible to use more polar aprotic solvents (DMSO, DMF) due to the rapid isomerization of some of the tested complexes under their influence.”
All cell lines were exposed to each compound tested at four different concentrations for 72 h. […] Additionally, all cell lines were exposed to acetone (Avantor Performance Materials, Gliwice, Poland) (the solvent used for tested compounds) at concentrations corresponding to those present in tested compounds’ dilutions.
as §4, with “Results are presented as mean IC50 (concentration of the compound tested that inhibits cell proliferation by 50%) ± standard deviation.” left out

[6] = set-up: method as in PMID 18777181; settings: cited from earlier work

Compound | logP ± SD [1] | Total Cellular Platinum Uptake in MCF-7 Cells (± SD) (MCF-7 cells) | IC50 ± SD ([2]; A549, hypoxia (1% O2)) | IC50 ± SD ([2]; A549, normoxia) | IC50 ± SD ([3]; ES-2, hypoxia (1% O2)) | IC50 ([3]; ES-2, normoxia) [µM] | IC50 ± SD ([4]; MCF-7, hypoxia (1% O2)) | IC50 ([4]; MCF-7, normoxia) [µM] | IC50 [5] [µM] | IC50 ([2]; A549, normoxia) [µM] | IC50 ([2]; A549, hypoxia (1% O2)) [µM] | IC50 ([3]; ES-2, hypoxia (1% O2)) [µM] | IC50 ([4]; MCF-7, hypoxia (1% O2)) [µM] | IC50 ± SD ([4]; MCF-7, normoxia) | IC50 ± SD ([3]; ES-2, normoxia) | IC50 ([5]; Mus musculus) [µM] | half-time of the reaction with GSH [6] [min]
COC(=O)c1c([N+](=O)[O-])c[n+]([Pt@SP2-2]([Cl])([Cl])[n+]2cc([N+](=O)[O-])c(C(=O)OC)n2C)n1C [Compound 5, cis-dichloridobis(methyl 1-methyl-4-nitropyrazole-5-carboxylate)platinum(II)] | −0.58 ± 0.13 | 39 ± 3 ng Pt/10^6 Cells | inactive | inactive | inactive | 38.1 ± 9.2 | inactive | 49.1 ± 30.1 | > 100 | – | – | – | – | – | – | – | –
N.N.[Cl][Pt][Cl] [Cisplatin, cisplatin, reference compound] | – | 74 ± 20 ng Pt/10^6 Cells | – | – | – | 8.6 ± 2.6 | – | 12.6 ± 2.6 | 8.67 ± 2.6 | 9.8 ± 1.2 | 23.9 ± 9.3 | 13.7 ± 5.7 | 14.7 ± 5.8 | – | – | – | –
Cn1cc([N+](=O)[O-])cn1 [1-Methyl-4-nitropyrazole, 1-methyl-4-nitropyrazole, reference compound] | – | – | inactive | inactive | inactive | – | inactive | – | – | – | – | – | – | inactive | inactive | > 100 | –
N.N.[Cl][Pt+2][Cl] [transplatin] | – | – | – | – | – | – | – | – | – | – | – | – | – | – | – | – | 4

More lines, main results first:

logP ± SD [1] | Compound | Total Cellular Platinum Uptake in MCF-7 Cells (± SD) (MCF-7 cells) | IC50 ± SD ([2]; A549, hypoxia (1% O2)) | IC50 ± SD ([2]; A549, normoxia) | IC50 ± SD ([3]; ES-2, hypoxia (1% O2)) | IC50 ([3]; ES-2, normoxia) [µM] | IC50 ± SD ([4]; MCF-7, hypoxia (1% O2)) | IC50 ([4]; MCF-7, normoxia) [µM] | IC50 [5] [µM] | IC50 ([2]; A549, normoxia) [µM] | IC50 ([2]; A549, hypoxia (1% O2)) [µM] | IC50 ([3]; ES-2, hypoxia (1% O2)) [µM] | IC50 ([4]; MCF-7, hypoxia (1% O2)) [µM] | IC50 ± SD ([4]; MCF-7, normoxia) | IC50 ± SD ([3]; ES-2, normoxia) | IC50 ([5]; Mus musculus) [µM] | half-time of the reaction with GSH [6] [min]
−0.69 ± 0.04 | Cc1c([N+](=O)[O-])cn(C)[n+]1[Pt@SP2-2]([Cl])([Cl])[n+]1c(C)c([N+](=O)[O-])cn1C [Compound 7, cis-dichloridobis(1,3-dimethyl-4-nitropyrazole)platinum(II)] | 16 ± 7 ng Pt/10^6 Cells | inactive | – | inactive | 68.9 ± 10 | inactive | 58 ± 8.7 | > 100 | 93 ± 12.9 | – | – | – | – | – | – | –
−1.22 ± 0.08 | COC(=O)c1c([N+](=O)[O-])cn(C)[n+]1[Pt-2]([Cl])([Cl])[Cl].[K+] [Compound 8, potassium trichlorido(3-carboxymethyl-1-methyl-4-nitropirazole)platinate(II)] | ^† below IDL | inactive | inactive | inactive | 48.5 ± 25.9 | inactive | – | > 100 | – | – | – | – | inactive | – | – | –
−0.37 ± 0.03 | COC(=O)c1c([N+](=O)[O-])c[n+]([Pt@SP3-2]([Cl])([Cl])[n+]2cc([N+](=O)[O-])c(C(=O)OC)n2C)n1C [Compound 6, trans-dichloridobis(methyl 1-methyl-4-nitropyrazole-5-carboxylate)platinum(II)] | 47 ± 17 ng Pt/10^6 Cells | inactive | – | – | 36.3 ± 8.6 | – | 23.6 ± 8.6 | > 100 | 58.2 ± 7.6 | – | 99.8 ± 37.9 | 86.8 ± 19 | – | – | – | –
